Data reported in patent publication USRE42461E1, “Hydroxy-substituted azetidinone compounds useful as hypocholesterolemic agents” (Schering Corporation, priority 1994, dated 2011).
Where two headings read alike, the source gives them in different places.

Test system: Hyperlipidemic Hamster
Assay: In Vivo Assay of Hypolipidemic Agents Using the Hyperlipidemic Hamster
Settings: 0.5% cholesterol diet 7 days, oral gavage once daily in corn oil, percent change versus control, negative = lowering; for change in vivo at 1 mg/kg / change in vivo at 3 mg/kg / change in vivo at 10 mg/kg / change in vivo at 50 mg/kg / change in vivo at 8 mg/kg / change in vivo at 7 mg/kg / change in vivo at 5 mg/kg: Mesocricetus auratus, 168 h
Method: The in vivo activity of the compounds of formula I can be determined by the following procedure: […]
In Vivo Assay of Hypoligidemic Hypolipidemic Agents Using the Hyperlipidemic Hamster
Hamsters are separated into groups of six and given a controlled cholesterol diet (Purina Chow #5001 containing 0.5% cholesterol) for seven days. Diet consumption is monitored to determine dietary cholesterol exposure in the face of test compounds. The animals are dosed with the test compound once daily beginning with the initiation of diet. Dosing is by oral gavage of 0.2 mL of corn oil alone (control group) or solution (or suspension) of test compound in corn oil. All animals moribund or in poor physical condition are euthanized. After seven days, the animals are anesthetized by intramuscular (IM) injection of ketamine and sacrificed by decapitation. Blood is collected into vacutainer tubes containing EDTA for plasma lipid analysis and the liver excised for tissue lipid analysis. Lipid analysis is conducted as per published procedures (Schnitzer-Polokoff, R., et al. Comp. Biochem. Physiol., 99A, 4 (1991), p. 665-670) and data is reported as percent reduction of lipid versus control.
Using the test procedures described above, the following in vivo data were obtained for the exemplified compounds. Data is reported as percent change (i.e., percent reduction in cholesterol esters) versus control, therefore, negative numbers indicate a positive lipid-lowering effect.

[1] = liver cholesterol esters, dose 1 mg/kg, read-out: % Reduction Cholest. Esters
[2] = po, dose 1 mg/kg, read-out: % Reduction Serum Cholest.
[3] = liver cholesterol esters, read-out: % Reduction Cholest. Esters
[4] = po, read-out: % Reduction Serum Cholest.
[5] = liver cholesterol esters, dose 1 mg/kg
[6] = liver cholesterol esters, dose 10 mg/kg, read-out: % Reduction Cholest. Esters
[7] = po, dose 10 mg/kg, read-out: % Reduction Serum Cholest.
[8] = liver cholesterol esters, dose 10 mg/kg

## CC(=O)Oc1ccc([C@@H]2[C@@H](CC[C@H](OC(C)=O)c3ccc(F)cc3)C(=O)N2c2ccc(F)cc2)cc1 [Example 8D, 4(S)-(4-acetyloxyphenyl)-3(R)-(3(S)-acetyloxy-3-(4-fluorophenyl)propyl)-1-(4-fluorophenyl)-2-azetidinone]
[1]
  change in vivo at 1 mg/kg: -98%
[2]
  change in vivo at 1 mg/kg: -49%

## O=C1[C@@H]([C@H](O)CCc2ccccc2)[C@@H](c2ccc(O)cc2)N1c1ccc(F)cc1 [Example 10]
[3]
  change in vivo at 3 mg/kg: -77%
[4]
  change in vivo at 3 mg/kg: -26%

## CC(=O)Oc1ccc([C@@H]2[C@@H](CC[C@@H](OC(C)=O)c3ccc(F)cc3)C(=O)N2c2ccc(F)cc2)cc1 [Example 8C, 4(S)-(4-acetyloxyphenyl)-3(R)-(3(R)-acetyloxiy-3-(4-fluorophenyl)propyl)-1-(4-fluorophenyl)-2-azetidinone]
Dose 1 mg/kg
  % Reduction Serum Cholest.: −14%
[5]
  % Reduction Cholest. Esters: −37%

## COc1ccc([C@@H]2[C@H]([C@H](O)CCc3ccccc3)C(=O)N2c2ccccc2)cc1 [Example 3H]
[6]
  change in vivo at 10 mg/kg: -86%
[7]
  change in vivo at 10 mg/kg: -41%

## COc1ccc(N2C(=O)C(CC[C@H](O)c3ccccc3)[C@H]2c2ccc(OC(C)=O)cc2)cc1 (stereo partly shown) [Example 6D]
[6]
  change in vivo at 10 mg/kg: -95%
[7]
  change in vivo at 10 mg/kg: -46%

## COc1ccc([C@H]2C(C[C@@H](OC(C)=O)c3ccccc3)C(=O)N2c2ccccc2)cc1 (stereo partly shown) [Example 2]
[3]
  change in vivo at 50 mg/kg: 0%
[4]
  change in vivo at 50 mg/kg: 0%

## O=C1C(CC[C@H](O)c2ccc(F)cc2)[C@@H](c2ccc(O)cc2)N1c1ccc(F)cc1 (stereo partly shown) [Example 6A]
[1]
  change in vivo at 1 mg/kg: -95%
[2]
  change in vivo at 1 mg/kg: -59%

## COc1ccc(N2C(=O)C(CC[C@@H](O)c3ccccc3)[C@H]2c2ccc(O)cc2)cc1 (stereo partly shown) [Example 4E]
[3]
  change in vivo at 3 mg/kg: -46%
[4]
  change in vivo at 3 mg/kg: 0%

## CC(=O)Oc1ccc([C@@H]2C(CC[C@H](OC(C)=O)c3ccc(Cl)cc3)C(=O)N2c2ccc(Cl)cc2)cc1 (stereo partly shown) [Example 8E]
[3]
  change in vivo at 3 mg/kg: -66%
[4]
  change in vivo at 3 mg/kg: -22%

## COc1ccc([C@@H]2C([C@@H](O)c3cccc4ccccc34)C(=O)N2c2ccccc2)cc1 (stereo partly shown) [Example 3L]
Dose 10 mg/kg
  % Reduction Serum Cholest.: −15%
[8]
  % Reduction Cholest. Esters: −21%

## COc1ccc([C@@H]2C(CC[C@H](O)c3ccccc3)C(=O)N2c2ccc(OC)cc2)cc1 (stereo partly shown) [Example 4B]
[3]
  change in vivo at 8 mg/kg: -89%
[4]
  change in vivo at 8 mg/kg: -37%

## O=C1C(CC[C@@H](O)c2ccc(F)cc2)[C@@H](c2ccc(O)cc2)N1c1ccc(F)cc1 (stereo partly shown) [Example 6B]
[3]
  change in vivo at 3 mg/kg: -92%
[4]
  change in vivo at 3 mg/kg: -40%

## COc1ccc([C@H]2C(C[C@@H](O)c3ccccc3)C(=O)N2c2ccccc2)cc1 (stereo partly shown) [Example 1A]
[3]
  change in vivo at 50 mg/kg: 0%
[4]
  change in vivo at 50 mg/kg: -2.3%

## COc1ccc([C@H]2[C@H](CC[C@H](O)c3ccccc3)C(=O)N2c2ccc(OC)cc2)cc1 [Example 4D]
[3]
  change in vivo at 7 mg/kg: 0%
[4]
  change in vivo at 7 mg/kg: 9%

## COc1ccc([C@@H]2[C@H](C(O)CCc3ccccc3)C(=O)N2c2ccccc2)cc1 (stereo partly shown) [Example 3C]
[3]
  change in vivo at 50 mg/kg: -92%
[4]
  change in vivo at 50 mg/kg: -60%

## COc1ccc([C@@H]2C([C@@H](O)c3cccc4ccccc34)C(=O)N2c2ccccc2)cc1 (stereo partly shown) [Example 3M]
Dose 10 mg/kg
  % Reduction Serum Cholest.: 0%
[8]
  % Reduction Cholest. Esters: −22%

## COCOc1ccc(C(O)CCC2C(=O)N(c3ccc(OC)cc3)[C@@H]2c2ccc(OC)cc2)cc1 (stereo partly shown) [Example 5]
[6]
  change in vivo at 10 mg/kg: -64%
[7]
  change in vivo at 10 mg/kg: 0%

## COc1ccc([C@@H]2[C@@H](CC[C@@H](OC(C)=O)c3ccccc3)C(=O)N2c2ccc(OC)cc2)cc1 [Example 8A, 1,4(S)-bis(4-methoxyphenyl)-3(R)-(3(R)-acetoxy-3-phenylpropyl)-2-azetidinone]
[3]
  change in vivo at 3 mg/kg: -44%
[4]
  change in vivo at 3 mg/kg: 0%

## COc1ccc([C@@H]2C(CC[C@@H](O)c3ccccc3)C(=O)N2c2ccc(OC)cc2)cc1 (stereo partly shown) [Example 4A]
[3]
  change in vivo at 5 mg/kg: -54%
[4]
  change in vivo at 5 mg/kg: 0%

## COc1ccc([C@@H]2C([C@@H](O)CCc3ccccc3)C(=O)N2c2ccccc2)cc1 (stereo partly shown) [Example 3A]
[3]
  change in vivo at 50 mg/kg: -69%
[4]
  change in vivo at 50 mg/kg: -31%

## O=C1[C@H](CC[C@H](O)c2ccc(F)cc2)[C@@H](c2ccc(OCc3ccccc3)cc2)N1c1ccc(F)cc1 [Example 6A-1]
Dose 1 mg/kg
  % Reduction Serum Cholest.: −43%
[5]
  % Reduction Cholest. Esters: −93%

## COc1ccc(N2C(=O)C(CC[C@@H](O)c3ccccc3)[C@H]2c2ccc(OC(C)=O)cc2)cc1 (stereo partly shown) [Example 6C]
[3]
  change in vivo at 3 mg/kg: -48%
[4]
  change in vivo at 3 mg/kg: 0%

## CC(=O)Oc1ccc([C@@H]2C(CC[C@@H](OC(C)=O)c3ccc(Cl)cc3)C(=O)N2c2ccc(Cl)cc2)cc1 (stereo partly shown) [Example 8F]
[1]
  change in vivo at 1 mg/kg: -94%
[2]
  change in vivo at 1 mg/kg: -43%

## COc1ccc(N2C(=O)C(CC[C@H](O)c3ccccc3)[C@H]2c2ccc(O)cc2)cc1 (stereo partly shown) [Example 4F]
[3]
  change in vivo at 3 mg/kg: -95%
[4]
  change in vivo at 3 mg/kg: -29%

## COc1ccc([C@@H]2C(C[C@@H](O)c3ccccc3)C(=O)N2c2ccccc2)cc1 (stereo partly shown) [Example 1B]
[3]
  change in vivo at 50 mg/kg: -39%
[4]
  change in vivo at 50 mg/kg: -15%

## COc1ccc([C@@H]2[C@@H](CC[C@H](OC(C)=O)c3ccccc3)C(=O)N2c2ccc(OC)cc2)cc1 [Example 8B, 1,4(S)-bis(4-methoxyphenyl)-3(R)-(3(S)-acetoxy-3-phenylpropyl)-2-azetidinone]
[3]
  change in vivo at 3 mg/kg: -95%
[4]
  change in vivo at 3 mg/kg: -50%
